Counter-ions that a name gives are not always drawn. Like-named read-outs stand apart in the source and are kept apart here.
Columns and labels:
[1] = system: AMPKα (5′-AMP-activated protein kinase alpha); experiment: AMPK activation: phosphorylation of AMPKα at Thr172 in MCF7 cells (AMPKα immunoassay kit); type: cell-based, human; conditions: MCF7, 24 h
Protocol: AMPK activation occurs when the generation of ATP, an energy source necessary for the survival of cancer cells, is inhibited. […] In this regard, AMPKα (5'-AMP-activated protein kinase alpha) activation was measured in the MCF7 human breast cancer cells using the AMPKα immunoassay kit (Invitrogen, catalog No. KHO0651). […] Then, the cells were lysed using the AMPKα immunoassay kit (Invitrogen, catalog No. KHO0651) according to the manufacturer's instruction.

[2] = system: human breast cancer cell line MCF7; experiment: MTT cell growth inhibition, MCF7 cells; type: cell-based
Protocol: (§1) Briefly, MCF7 and NCI-N87 cells were grown at a density of 5,000 cells/well in DMEM and RPMI1640 media (both purchased from Gibco Life Technologies, USA), respectively, both supplemented with 10% (v/v) bovine calf serum (BCS), on 96-well plates for 16 h (Temp.: 37° C., pH: 7.0˜7.4). Then, the MCF7 cells were incubated for 48 h with 2.5 mM 2-deoxy-D-glucose and 100 μM phenformin HCl, solely or in combination while NCI-N87 cells were incubated for 48 h with 2.5 mM 2-deoxy-D-glucose and 700 μM phenformin HCl, solely or in combination (Temp.: 37° C., pH: 7.0˜7.4). To quantitate viable cells after incubation with 2-deoxy-D-glucose and phenformin HCl, the cell cultures were further incubated for 3 h in the presence of MTT. The formazan crystals thus formed were dissolved with DMSO (dimethyl sulfoxide) before reading absorbance at 560 nm.
(§2) After the 48 h incubation, viable cells were counted on the well plates treated with 2-deoxy-D-glucose and phenformin, and expressed as % cell growth inhibition relative to the count of the viable cells on the well plates treated with neither 2-deoxy-D-glucose nor phenformin.
(§3) When the human breast cancer cell line MCF7 and the human stomach cancer cell line NCI-N87 were treated with various concentrations of phenformin and 2-deoxy-D-glucose, % inhibition of cancer cell growth was measured. The same procedure as in Experimental Example 2 was repeated, with the exception that 2-deoxy-D-glucose and phenformin HCl were used at different concentrations.
(§4) The same procedure as in Experimental Example 3 was repeated in the breast cancer cell line MCF7 and the colorectal cancer cell line HCT116 (both purchased from the Korean Cell Line Bank), with the exception that the materials and concentrations indicated in Tables 5 and 6 were employed.

[3] = system: human stomach cancer cell line NCI-N87; experiment: MTT cell growth inhibition, NCI-N87 cells; type: cell-based
Protocol: as §1, §2, §3

[4] = system: colorectal cancer cell line HCT116; experiment: MTT cell growth inhibition, HCT116 cells; type: cell-based, human
Protocol: as §1, §2, §4

**Q.** With `OCC1O[C@H](O)C[C@@H](O)[C@@H]1O` (mixture of isomers) [2-Deoxy-D-glucose, 2-deoxy-D-glucose] as the molecule, how does the “Normalized to Control (P-AMPK)” value ([1]; 2-deoxy-D-glucose 2.5 mM) read?
**A.** Its value is 1.46.

**Q.** What about the “P-AMPK (Unit/ml)” value ([1]; 2-deoxy-D-glucose 2.5 mM) of the same molecule?
**A.** Its value is 7.62 ± 1.2 Unit/ml.

**Q.** What about the inhibition at 2500 µM ([2]; Homo sapiens, MCF7, 48 h, read-out: Cell Growth Inhibition (%)) of the same molecule?
**A.** The inhibition at 2500 µM was 44.2%.

**Q.** And the “Tumor Growth Inhibition (%)” value ([2]; MCF7, 2-DG 100 μM alone)?
**A.** The value was 0%.

**Q.** And the “Tumor Growth Inhibition (%)” value ([2]; MCF7, 2-DG 500 μM alone)?
**A.** The value was 5%.

**Q.** What about the “Tumor Growth Inhibition (%)” value ([2]; MCF7, 2-DG 2 mM alone) of the same molecule?
**A.** Its value is 31%.

**Q.** And the “Tumor Growth Inhibition (%)” value ([2]; MCF7, 2-DG 2.5 mM alone (Table 5))?
**A.** Its value is 58%.

**Q.** What about the “Tumor Growth Inhibition (%)” value ([2]; MCF7, 2-DG 5.0 mM alone) of the same molecule?
**A.** Its value is 76%.

**Q.** And the “Tumor Growth Inhibition (%)” value ([2]; MCF7, 2-DG 20.0 mM alone)?
**A.** Its value is 91%.

**Q.** And the “inhibitory effect on breast cancer cells relative to stomach cancer cells” value ([2]; MCF7 vs NCI-N87, 2.5 mM)?
**A.** The value was “about 3 times”.

**Q.** And the inhibition at 2500 µM ([3]; Homo sapiens, NCI-N87, 48 h, 2-deoxy-D-glucose 2.5 mM)?
**A.** The inhibition at 2500 µM was 15.1%.

**Q.** What about the “Tumor Growth Inhibition (%)” value ([3]; NCI-N87, 2-DG 100 μM alone) of the same molecule?
**A.** The value was 3%.

**Q.** And the “Tumor Growth Inhibition (%)” value ([3]; NCI-N87, 2-DG 500 μM alone)?
**A.** Its value is 6%.

**Q.** And the “Tumor Growth Inhibition (%)” value ([3]; NCI-N87, 2-DG 2 mM alone)?
**A.** Its value is 32%.

**Q.** What about the “Tumor Growth Inhibition (%)” value ([4]; 2-DG 2.5 mM alone) of the same molecule?
**A.** Its value is 62%.

**Q.** And the “Tumor Growth Inhibition (%)” value ([4]; 2-DG 5.0 mM alone)?
**A.** Its value is 79%.

**Q.** And the “Tumor Growth Inhibition (%)” value ([4]; 2-DG 20.0 mM alone)?
**A.** The value was 93%.

**Q.** For `CN(C)C(=N)N=C(N)N` [Metformin HCl, metformin hydrochloride], which inhibition at 625 µM ([2]; Homo sapiens, MCF7, metformin HCl 0.625 mM alone, read-out: Tumor Growth Inhibition (%)) is on record?
**A.** The inhibition at 625 µM was 9%.

**Q.** And the inhibition at 1250 µM ([2]; Homo sapiens, MCF7, metformin HCl 1.25 mM alone, read-out: Tumor Growth Inhibition (%))?
**A.** The inhibition at 1250 µM was 22%.

**Q.** What about the inhibition at 2500 µM ([2]; Homo sapiens, MCF7, metformin HCl 2.5 mM alone, read-out: Tumor Growth Inhibition (%)) of the same molecule?
**A.** Its inhibition at 2500 µM is 24%.

**Q.** And the inhibition at 5000 µM ([2]; Homo sapiens, MCF7, metformin HCl 5.0 mM alone, read-out: Tumor Growth Inhibition (%))?
**A.** The inhibition at 5000 µM was 30%.

**Q.** And the inhibition at 10000 µM ([2]; Homo sapiens, MCF7, metformin HCl 10.0 mM alone, read-out: Tumor Growth Inhibition (%))?
**A.** Its inhibition at 10000 µM is 38%.

**Q.** And the inhibition at 20000 µM ([2]; Homo sapiens, MCF7, metformin HCl 20.0 mM alone, read-out: Tumor Growth Inhibition (%))?
**A.** Its inhibition at 20000 µM is 61%.

**Q.** And the inhibition at 625 µM ([4]; Homo sapiens, HCT-116, metformin HCl 0.625 mM alone, read-out: Tumor Growth Inhibition (%))?
**A.** Its inhibition at 625 µM is 7%.

**Q.** And the inhibition at 1250 µM ([4]; Homo sapiens, HCT-116, metformin HCl 1.25 mM alone, read-out: Tumor Growth Inhibition (%))?
**A.** The inhibition at 1250 µM was 11%.

**Q.** And the inhibition at 2500 µM ([4]; Homo sapiens, HCT-116, metformin HCl 2.5 mM alone, read-out: Tumor Growth Inhibition (%))?
**A.** Its inhibition at 2500 µM is 40%.

**Q.** And the inhibition at 5000 µM ([4]; Homo sapiens, HCT-116, metformin HCl 5.0 mM alone, read-out: Tumor Growth Inhibition (%))?
**A.** Its inhibition at 5000 µM is 64%.

**Q.** What about the inhibition at 10000 µM ([4]; Homo sapiens, HCT-116, metformin HCl 10.0 mM alone, read-out: Tumor Growth Inhibition (%)) of the same molecule?
**A.** Its inhibition at 10000 µM is 63%.

**Q.** And the inhibition at 20000 µM ([4]; Homo sapiens, HCT-116, metformin HCl 20.0 mM alone, read-out: Tumor Growth Inhibition (%))?
**A.** Its inhibition at 20000 µM is 66%.

**Q.** Which results are given for `N=C(N)NC(=N)NCCc1ccccc1` [Phenformin HCl, phenformin hydrochloride]?
**A.** Normalized to Control (P-AMPK) ([1]; phenformin HCl 50 nM [sic]): 5.98; P-AMPK (Unit/ml) ([1]; phenformin HCl 50 nM [sic]): 12.14 ± 2.0 Unit/ml; inhibition at 100 µM ([2]; Homo sapiens, MCF7, 48 h, phenformin HCl 100 μM, read-out: Cell Growth Inhibition (%)): 14.3%; inhibition at 10 µM ([2]; Homo sapiens, MCF7, phenformin 10 μM alone, read-out: Tumor Growth Inhibition (%)): 9%; inhibition at 50 µM ([2]; Homo sapiens, MCF7, phenformin 50 μM alone, read-out: Tumor Growth Inhibition (%)): 12%; inhibition at 100 µM ([2]; Homo sapiens, MCF7, phenformin 100 μM alone, read-out: Tumor Growth Inhibition (%)): 14%; inhibition at 200 µM ([2]; Homo sapiens, MCF7, phenformin 200 μM alone, read-out: Tumor Growth Inhibition (%)): 18%; inhibition at 400 µM ([2]; Homo sapiens, MCF7, phenformin 400 μM alone, read-out: Tumor Growth Inhibition (%)): 31%; inhibition at 1000 µM ([2]; Homo sapiens, MCF7, phenformin 1 mM alone, read-out: Tumor Growth Inhibition (%)): 58%; inhibition at 700 µM ([3]; Homo sapiens, NCI-N87, 48 h, phenformin HCl 700 μM): 52.5%; inhibition at 10 µM ([3]; Homo sapiens, NCI-N87, phenformin 10 μM alone, read-out: Tumor Growth Inhibition (%)): 22%; inhibition at 50 µM ([3]; Homo sapiens, NCI-N87, phenformin 50 μM alone, read-out: Tumor Growth Inhibition (%)): 24%; inhibition at 100 µM ([3]; Homo sapiens, NCI-N87, phenformin 100 μM alone, read-out: Tumor Growth Inhibition (%)): 24%; inhibition at 200 µM ([3]; Homo sapiens, NCI-N87, phenformin 200 μM alone, read-out: Tumor Growth Inhibition (%)): 24%; inhibition at 400 µM ([3]; Homo sapiens, NCI-N87, phenformin 400 μM alone, read-out: Tumor Growth Inhibition (%)): 26%; inhibition at 1000 µM ([3]; Homo sapiens, NCI-N87, phenformin 1 mM alone, read-out: Tumor Growth Inhibition (%)): 39%; inhibitory effect on stomach cancer cells relative to breast cancer cells ([3]; NCI-N87 (700 μM) vs MCF7 (100 μM), 7-fold increased concentration): approximately 4 fold
